Structures can show the parent of a compound that is named as a salt. The source made the active and inactive calls. Cut-off read from the data, not from the text of the source, for most assays here: actives have a measured Kd and inactives only a lower limit.
Tests used:
[1] = molecular target: T1, Receptor-type tyrosine-protein kinase FLT3 (Homo sapiens, UniProt P36888)
T1 sequence (P36888 whole entry): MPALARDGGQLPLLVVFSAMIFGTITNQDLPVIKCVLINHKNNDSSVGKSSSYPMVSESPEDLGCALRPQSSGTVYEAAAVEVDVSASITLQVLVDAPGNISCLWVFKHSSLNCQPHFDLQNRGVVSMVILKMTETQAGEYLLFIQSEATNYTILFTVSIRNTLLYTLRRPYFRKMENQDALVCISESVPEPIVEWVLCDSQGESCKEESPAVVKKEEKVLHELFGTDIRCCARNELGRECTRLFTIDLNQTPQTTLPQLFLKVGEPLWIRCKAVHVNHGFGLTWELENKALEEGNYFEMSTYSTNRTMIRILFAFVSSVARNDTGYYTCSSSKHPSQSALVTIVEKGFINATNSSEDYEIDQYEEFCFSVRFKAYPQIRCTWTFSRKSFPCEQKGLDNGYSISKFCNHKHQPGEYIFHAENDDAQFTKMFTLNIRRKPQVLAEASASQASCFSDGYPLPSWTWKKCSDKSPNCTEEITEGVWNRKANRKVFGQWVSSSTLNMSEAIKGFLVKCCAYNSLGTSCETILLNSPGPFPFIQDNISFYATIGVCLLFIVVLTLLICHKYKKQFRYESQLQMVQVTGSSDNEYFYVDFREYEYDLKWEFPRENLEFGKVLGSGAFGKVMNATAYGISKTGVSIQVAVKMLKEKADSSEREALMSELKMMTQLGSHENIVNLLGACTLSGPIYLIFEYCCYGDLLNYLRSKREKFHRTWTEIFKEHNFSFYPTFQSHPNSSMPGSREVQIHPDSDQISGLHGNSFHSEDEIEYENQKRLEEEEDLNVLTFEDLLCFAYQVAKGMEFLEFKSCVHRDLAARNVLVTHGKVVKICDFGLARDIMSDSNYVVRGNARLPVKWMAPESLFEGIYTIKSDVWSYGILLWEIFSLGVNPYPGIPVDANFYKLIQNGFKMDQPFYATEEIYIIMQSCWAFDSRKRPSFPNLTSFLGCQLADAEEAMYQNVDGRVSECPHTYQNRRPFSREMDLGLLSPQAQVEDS

[2] = molecular target: T2, General transcription and DNA repair factor IIH helicase subunit XPD (Homo sapiens, UniProt P18074); conditions: read-out: Kd apparent; k-562, colo 205, sk-n-be(2) and mv-4-11
T2 sequence (P18074 whole entry): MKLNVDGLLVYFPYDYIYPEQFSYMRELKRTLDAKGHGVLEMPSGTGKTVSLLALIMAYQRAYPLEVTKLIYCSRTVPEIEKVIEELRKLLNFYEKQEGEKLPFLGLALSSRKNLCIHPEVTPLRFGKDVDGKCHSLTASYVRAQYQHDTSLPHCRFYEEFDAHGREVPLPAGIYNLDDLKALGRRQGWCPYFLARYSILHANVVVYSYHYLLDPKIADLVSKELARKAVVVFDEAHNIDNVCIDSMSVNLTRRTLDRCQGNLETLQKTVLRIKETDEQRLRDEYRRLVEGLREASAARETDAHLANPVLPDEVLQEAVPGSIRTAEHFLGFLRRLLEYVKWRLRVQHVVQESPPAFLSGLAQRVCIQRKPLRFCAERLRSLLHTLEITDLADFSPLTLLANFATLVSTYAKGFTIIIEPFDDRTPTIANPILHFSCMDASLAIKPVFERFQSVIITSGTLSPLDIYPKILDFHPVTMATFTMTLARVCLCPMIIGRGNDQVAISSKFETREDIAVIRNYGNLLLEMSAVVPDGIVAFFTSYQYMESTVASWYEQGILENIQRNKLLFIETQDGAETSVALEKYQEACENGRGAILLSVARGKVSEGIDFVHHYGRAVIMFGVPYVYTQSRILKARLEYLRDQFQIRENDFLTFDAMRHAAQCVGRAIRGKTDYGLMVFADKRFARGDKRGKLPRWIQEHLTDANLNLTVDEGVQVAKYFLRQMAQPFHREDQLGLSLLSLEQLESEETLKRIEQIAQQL

Ephrin type-B receptor 3 = molecular target: T3, Ephrin type-B receptor 3 (Homo sapiens, UniProt P54753)
T3 sequence (P54753 whole entry): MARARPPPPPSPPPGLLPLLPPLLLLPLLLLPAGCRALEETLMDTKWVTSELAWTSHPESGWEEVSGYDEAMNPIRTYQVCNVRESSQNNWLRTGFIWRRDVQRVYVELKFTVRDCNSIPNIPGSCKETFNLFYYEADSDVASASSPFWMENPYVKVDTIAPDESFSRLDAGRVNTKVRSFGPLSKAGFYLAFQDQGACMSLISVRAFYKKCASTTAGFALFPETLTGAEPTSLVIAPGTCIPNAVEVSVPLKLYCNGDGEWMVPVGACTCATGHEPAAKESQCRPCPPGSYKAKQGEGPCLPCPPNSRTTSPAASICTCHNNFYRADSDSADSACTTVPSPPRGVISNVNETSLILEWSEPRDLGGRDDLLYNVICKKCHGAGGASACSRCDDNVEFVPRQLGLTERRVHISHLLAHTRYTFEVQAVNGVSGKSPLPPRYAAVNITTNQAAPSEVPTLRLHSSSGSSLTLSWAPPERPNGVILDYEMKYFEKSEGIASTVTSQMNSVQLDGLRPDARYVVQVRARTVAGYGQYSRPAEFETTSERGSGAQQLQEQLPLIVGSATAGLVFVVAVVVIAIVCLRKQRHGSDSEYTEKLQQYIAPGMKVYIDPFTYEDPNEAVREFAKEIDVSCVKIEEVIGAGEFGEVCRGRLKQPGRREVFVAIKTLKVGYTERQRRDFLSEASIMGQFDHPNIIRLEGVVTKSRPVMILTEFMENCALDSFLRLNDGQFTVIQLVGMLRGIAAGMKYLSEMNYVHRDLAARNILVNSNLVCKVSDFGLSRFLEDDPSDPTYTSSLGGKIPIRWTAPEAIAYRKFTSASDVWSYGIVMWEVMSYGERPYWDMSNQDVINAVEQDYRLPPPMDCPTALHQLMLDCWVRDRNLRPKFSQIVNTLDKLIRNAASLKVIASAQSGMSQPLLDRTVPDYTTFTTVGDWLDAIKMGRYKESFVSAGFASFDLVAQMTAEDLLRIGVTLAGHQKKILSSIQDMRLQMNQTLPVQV

[3] = molecular target: Calcium/calmodulin-dependent protein kinase kinase 2 (Homo sapiens, UniProt Q96RR4)
[4] = molecular target: Protein kinase C delta type (Homo sapiens, UniProt Q05655)
Note: in the data inactive means no Kd found up to 30 µM.

Sequence of Calcium/calmodulin-dependent protein kinase kinase 2 (Q96RR4 whole entry): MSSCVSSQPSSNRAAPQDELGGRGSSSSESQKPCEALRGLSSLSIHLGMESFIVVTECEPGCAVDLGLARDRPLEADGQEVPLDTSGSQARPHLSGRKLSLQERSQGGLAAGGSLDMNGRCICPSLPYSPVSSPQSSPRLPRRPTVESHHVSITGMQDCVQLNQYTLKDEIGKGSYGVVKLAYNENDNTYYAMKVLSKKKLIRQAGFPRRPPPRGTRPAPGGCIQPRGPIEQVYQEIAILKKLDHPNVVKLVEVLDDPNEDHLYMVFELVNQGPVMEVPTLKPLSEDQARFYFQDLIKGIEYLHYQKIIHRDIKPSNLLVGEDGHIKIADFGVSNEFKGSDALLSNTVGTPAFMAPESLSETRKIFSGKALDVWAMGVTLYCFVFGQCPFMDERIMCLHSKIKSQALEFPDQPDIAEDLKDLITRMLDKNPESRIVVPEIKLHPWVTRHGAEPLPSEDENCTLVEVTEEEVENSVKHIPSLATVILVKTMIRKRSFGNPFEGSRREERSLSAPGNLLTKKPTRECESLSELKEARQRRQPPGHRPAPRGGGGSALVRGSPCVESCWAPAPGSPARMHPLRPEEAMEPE
Sequence of Protein kinase C delta type (Q05655 whole entry): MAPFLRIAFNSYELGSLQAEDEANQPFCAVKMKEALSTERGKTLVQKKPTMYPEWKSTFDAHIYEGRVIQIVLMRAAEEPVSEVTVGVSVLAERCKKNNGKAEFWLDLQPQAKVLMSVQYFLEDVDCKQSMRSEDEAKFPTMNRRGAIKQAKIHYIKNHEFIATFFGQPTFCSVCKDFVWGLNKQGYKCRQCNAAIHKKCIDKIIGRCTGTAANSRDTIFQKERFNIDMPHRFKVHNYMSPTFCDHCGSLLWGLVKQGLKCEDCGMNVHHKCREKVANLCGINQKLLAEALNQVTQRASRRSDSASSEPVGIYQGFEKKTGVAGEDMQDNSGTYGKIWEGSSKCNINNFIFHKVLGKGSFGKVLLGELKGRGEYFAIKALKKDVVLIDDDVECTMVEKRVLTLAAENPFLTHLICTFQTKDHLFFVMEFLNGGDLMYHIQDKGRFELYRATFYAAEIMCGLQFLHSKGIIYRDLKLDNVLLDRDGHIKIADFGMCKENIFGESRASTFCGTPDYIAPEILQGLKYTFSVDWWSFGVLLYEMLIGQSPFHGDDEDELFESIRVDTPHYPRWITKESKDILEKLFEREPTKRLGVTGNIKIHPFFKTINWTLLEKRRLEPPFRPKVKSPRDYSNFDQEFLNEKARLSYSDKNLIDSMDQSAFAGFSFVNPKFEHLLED

Row | Kd [1] | Kd [2] | Kd (Ephrin type-B receptor 3) | Kd [3] | Kd [4] | SMILES
1 | > 30 µM (inactive) | > 30 µM (inactive) | > 30 µM (inactive) | > 30 µM (inactive) | 1.09 µM (active) | Cc1csc(-c2nnc(Nc3ccc(Oc4ncccc4-c4ccnc(N)n4)cc3)c3ccccc23)c1 [AMG-900]
2 | > 30 µM (inactive) | > 30 µM (inactive) | > 30 µM (inactive) | > 30 µM (inactive) | > 30 µM (inactive) | C=CC(=O)Nc1cc2c(Nc3ccc(F)c(Cl)c3)ncnc2cc1C#CC(C)(C)N1CCN(C)CC1 [AV-412 FREE BASE]
3 | > 30 µM (inactive) | > 30 µM (inactive) | > 30 µM (inactive) | > 30 µM (inactive) | > 30 µM (inactive) | Cc1cc(C(=O)NOCCO)c(Nc2ccc(I)cc2F)n(C)c1=O [AZD-8330]
4 | > 30 µM (inactive) | > 30 µM (inactive) | > 30 µM (inactive) | > 30 µM (inactive) | > 30 µM (inactive) | Cn1cnc2c(F)c(Nc3ccc(Br)cc3F)c(C(=O)NOCCO)cc21 [BINIMETINIB]
5 | > 30 µM (inactive) | > 30 µM (inactive) | > 30 µM (inactive) | > 30 µM (inactive) | > 30 µM (inactive) | CCn1c(C(=O)N(C2CC2)C2CC2)cc2c3c(ncn3C)c(Nc3cc(C)n(C)n3)nc21 [BMS-911543]
6 | 0.55 µM (active) | > 30 µM (inactive) | > 30 µM (inactive) | > 30 µM (inactive) | > 30 µM (inactive) | COc1cc2ncnc(Oc3cccc(NC(=O)Nc4cc(C(C)(C)C(F)(F)F)on4)c3)c2cc1OC [CEP-32496]
7 | 4.26 µM (active) | > 30 µM (inactive) | > 30 µM (inactive) | 5.43 µM (active) | > 30 µM (inactive) | Cc1cc(Nc2ncc(Cl)c(Nc3ccccc3S(=O)(=O)C(C)C)n2)c(OC(C)C)cc1C1CCNCC1 [CERITINIB]
8 | > 30 µM (inactive) | > 30 µM (inactive) | > 30 µM (inactive) | > 30 µM (inactive) | > 30 µM (inactive) | COCC(=O)NC/C=C/c1ccc2ncnc(Nc3ccc(Oc4ccc(C)nc4)c(C)c3)c2c1 [CP-724714]
9 | > 30 µM (inactive) | > 30 µM (inactive) | > 30 µM (inactive) | > 30 µM (inactive) | > 30 µM (inactive) | C#Cc1cccc(Nc2ncnc3cc(OC)c(OCCCCCCC(=O)NO)cc23)c1 [CUDC-101]
10 | 1.5 µM (active) | > 30 µM (inactive) | > 30 µM (inactive) | > 30 µM (inactive) | 3.82 µM (active) | CCS(=O)(=O)N1CCN(c2ccc(Nc3ncc(C(N)=O)c(NC4CC4)n3)cc2)CC1 [Cerdulatinib Hydrochloride]
11 | > 30 µM (inactive) | > 30 µM (inactive) | > 30 µM (inactive) | > 30 µM (inactive) | > 30 µM (inactive) | Cc1nc2cc(-n3ncc(C(=O)c4cc5ccccc5[nH]4)c3N)ccc2[nH]1 [FGFR INHIBITOR DEBIO 1347]
12 | > 30 µM (inactive) | > 30 µM (inactive) | > 30 µM (inactive) | > 30 µM (inactive) | > 30 µM (inactive) | Cc1cccc(-c2nn3c(c2-c2ccnc4ccc(C(N)=O)cc24)CCC3)n1 [GALUNISERTIB]
13 | > 30 µM (inactive) | > 30 µM (inactive) | > 30 µM (inactive) | > 30 µM (inactive) | > 30 µM (inactive) | COc1ccc(S(=O)(=O)N(C(C)=O)c2ccccc2/C=C/c2cc[n+]([O-])cc2)cc1 [HMN-214]
14 | > 30 µM (inactive) | > 30 µM (inactive) | > 30 µM (inactive) | > 30 µM (inactive) | > 30 µM (inactive) | CNC(=O)c1cccc2cc(Oc3ccnc4cc(OCC5(N)CC5)c(OC)cc34)ccc12 [LUCITANIB]
15 | > 30 µM (inactive) | > 30 µM (inactive) | > 30 µM (inactive) | > 30 µM (inactive) | > 30 µM (inactive) | NC1(c2ccc(-c3nc4ccn5c(=O)[nH]nc5c4cc3-c3ccccc3)cc2)CCC1 [MK-2206]
16 | > 30 µM (inactive) | > 30 µM (inactive) | > 30 µM (inactive) | > 30 µM (inactive) | > 30 µM (inactive) | CN(C[C@@H]1COCCO1)S(=O)(=O)Nc1ccc2ccc3ncc(-c4cnn(C)c4)cc3c(=O)c2c1 [MK-2461]
17 | > 30 µM (inactive) | > 30 µM (inactive) | > 30 µM (inactive) | > 30 µM (inactive) | > 30 µM (inactive) | Cn1cc(-c2cnc3ccc4ccc(CS(=O)(=O)NCc5ccccn5)cc4c(=O)c3c2)cn1 [MK-8033]
18 | > 30 µM (inactive) | > 30 µM (inactive) | > 30 µM (inactive) | > 30 µM (inactive) | > 30 µM (inactive) | FC(F)(F)c1ccc(/C=C/c2nc(COc3ccc(CCCCn4ccnn4)cc3)co2)cc1 [MUBRITINIB]
19 | > 30 µM (inactive) | > 30 µM (inactive) | > 30 µM (inactive) | > 30 µM (inactive) | > 30 µM (inactive) | COc1ncc(-c2ccc3nccc(-c4ccnnc4)c3c2)cc1NS(=O)(=O)c1ccc(F)cc1F [OMIPALISIB]

Row | SMILES | Kd [1] | Kd [2] | Kd (Ephrin type-B receptor 3) | Kd [3] | Kd [4]
20 | COc1cc([C@@H]2c3cc4c(cc3[C@H](O)[C@H]3COC(=O)[C@@H]23)OCO4)cc(OC)c1OC [AXL-1717] | > 30 µM (inactive) | > 30 µM (inactive) | > 30 µM (inactive) | > 30 µM (inactive) | > 30 µM (inactive)
21 | NC(=O)Nc1cc(-c2cccc(F)c2)sc1C(=O)N[C@H]1CCCNC1 [AZD-7762] | > 30 µM (inactive) | > 30 µM (inactive) | > 30 µM (inactive) | > 30 µM (inactive) | 0.928 µM
22 | CCCCCCCCCCCCCCCCCCOP(=O)([O-])OC1CC[N+](C)(C)CC1 [PERIFOSINE] | > 30 µM (inactive) | > 30 µM (inactive) | > 30 µM (inactive) | > 30 µM (inactive) | > 30 µM (inactive)

Source: ChEMBL document CHEMBL3991601, “The target landscape of clinical kinase drugs” (Science, 2017)
